Assays:
[1] = biological target: Interleukin-1 receptor-associated kinase 1 (Homo sapiens, UniProt P51617); experiment: (§1) Inhibition of truncated human N-terminal GST-fusion tagged IRAK1 (194 to 712 residues) expressed in baculovirus expression system using FAM-labelled peptide as substrate preincubated for 10 mins followed by substrate addition and further incubated for 1 hr in presence of ATP at Km concentration by caliper mobility shift assay
[2] = biological target: T1, Interleukin-1 receptor-associated kinase 4 (Homo sapiens, UniProt Q9NWZ3); experiment: as §1, with “full length” for “truncated”, “IRAK4” for “IRAK1 (194 to 712 residues)”
T1 sequence (Q9NWZ3 whole entry): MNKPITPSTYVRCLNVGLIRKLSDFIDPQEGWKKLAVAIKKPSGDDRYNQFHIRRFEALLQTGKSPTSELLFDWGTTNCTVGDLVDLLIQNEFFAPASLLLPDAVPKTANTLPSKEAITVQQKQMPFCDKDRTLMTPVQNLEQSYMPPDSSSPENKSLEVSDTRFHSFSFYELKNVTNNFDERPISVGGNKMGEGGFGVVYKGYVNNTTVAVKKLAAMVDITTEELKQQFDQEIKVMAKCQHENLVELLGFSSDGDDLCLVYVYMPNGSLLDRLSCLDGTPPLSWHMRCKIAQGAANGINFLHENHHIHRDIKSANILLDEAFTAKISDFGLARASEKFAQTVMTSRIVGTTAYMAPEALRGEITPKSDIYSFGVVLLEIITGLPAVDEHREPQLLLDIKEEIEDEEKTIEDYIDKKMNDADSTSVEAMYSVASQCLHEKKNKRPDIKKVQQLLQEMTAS

[3] = Cytotoxicity against human HBL1 cells assessed as cell growth inhibition measured after 12 days by WST-8 assay; format: functional, cell-based; details: HBL1, 288 h
[4] = biological target: T2, von Hippel-Lindau disease tumor suppressor/Interleukin-1 receptor-associated kinase 1 (Homo sapiens, UniProt P51617+P40337); experiment: Protac activity at IRAK1/VHL E3 ligase in HEK293T cells assessed as induction of IRAK1 degradation at 10 uM measured after 24 hrs by Western blot analysis relative to control; format: cell-based
Target sequence in this assay (P40337 whole entry, looked up): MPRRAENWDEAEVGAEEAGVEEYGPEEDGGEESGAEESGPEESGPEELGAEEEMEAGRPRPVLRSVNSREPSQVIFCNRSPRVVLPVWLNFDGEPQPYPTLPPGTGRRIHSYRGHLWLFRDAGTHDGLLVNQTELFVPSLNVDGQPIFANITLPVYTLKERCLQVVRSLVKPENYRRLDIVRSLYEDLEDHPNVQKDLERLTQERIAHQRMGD
Target sequence in this assay (P51617 whole entry, looked up): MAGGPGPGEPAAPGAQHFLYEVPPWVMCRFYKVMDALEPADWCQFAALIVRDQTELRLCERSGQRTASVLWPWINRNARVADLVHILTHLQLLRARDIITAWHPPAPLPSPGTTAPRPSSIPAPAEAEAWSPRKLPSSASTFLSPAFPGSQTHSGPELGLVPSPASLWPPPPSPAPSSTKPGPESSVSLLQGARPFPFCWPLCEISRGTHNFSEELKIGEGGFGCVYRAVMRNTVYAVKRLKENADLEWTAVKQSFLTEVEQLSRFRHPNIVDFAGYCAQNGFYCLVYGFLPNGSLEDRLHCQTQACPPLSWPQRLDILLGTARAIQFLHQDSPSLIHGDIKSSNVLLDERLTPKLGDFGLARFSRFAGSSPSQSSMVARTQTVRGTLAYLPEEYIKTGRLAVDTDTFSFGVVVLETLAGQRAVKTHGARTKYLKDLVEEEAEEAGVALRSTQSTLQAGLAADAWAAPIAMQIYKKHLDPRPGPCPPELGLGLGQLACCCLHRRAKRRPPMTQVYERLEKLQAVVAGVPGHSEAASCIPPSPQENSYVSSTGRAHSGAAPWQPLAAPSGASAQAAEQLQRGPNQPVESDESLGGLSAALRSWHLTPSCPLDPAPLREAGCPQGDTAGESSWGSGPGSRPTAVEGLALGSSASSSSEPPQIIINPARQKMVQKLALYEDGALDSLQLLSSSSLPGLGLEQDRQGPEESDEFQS

[5] = biological target: von Hippel-Lindau disease tumor suppressor (Homo sapiens, UniProt P40337); experiment: Displacement of 5-FAM-labelled DEALA-HypYIPMDDDFQLRSF peptide from VHL (unknown origin) by fluorescence polarization assay
Sequence of von Hippel-Lindau disease tumor suppressor (P40337 whole entry): as the sequence (P40337 whole entry, looked up) above

[6] = biological target: T2, von Hippel-Lindau disease tumor suppressor/Interleukin-1 receptor-associated kinase 1; experiment: Protac activity at IRAK1/VHL E3 ligase in HEK293T cells assessed as induction of IRAK1 degradation measured after 24 hrs by Western blot analysis; format: cell-based
Target sequence in this assay (P51617 whole entry): as the sequence (P51617 whole entry, looked up) above
Target sequence in this assay (P40337 whole entry): as the sequence (P40337 whole entry, looked up) above

[7] = Cytotoxicity against human HBL1 cells assessed as reduction in cell viability measured after 12 days by CellTiter-Glo assay; format: functional; details: time 12 day
[8] = tested on: OCI-Ly10; experiment: Cytotoxicity against human OCILY10 cells assessed as reduction in cell viability measured after 12 days by CellTiter-Glo assay; format: functional; details: time 12 day
[9] = biological target: T2, von Hippel-Lindau disease tumor suppressor/Interleukin-1 receptor-associated kinase 1; experiment: Protac activity at IRAK1/VHL E3 ligase in HEK293T cells assessed as induction of IRAK1 degradation at >=1 uM measured after 2 hrs by Western blot analysis relative to control; format: cell-based; details: dose microM >=1, time 2.0 hrs
Target sequence in this assay (P40337 whole entry, looked up): as above
Target sequence in this assay (P51617 whole entry, looked up): as the sequence (P51617 whole entry, looked up) above

[10] = biological target: T2, von Hippel-Lindau disease tumor suppressor/Interleukin-1 receptor-associated kinase 1; experiment: Protac activity at IRAK1/VHL E3 ligase in HEK293T cells assessed as induction of IRAK1 degradation at >=1 uM measured after 8 hrs by Western blot analysis relative to control; format: cell-based; details: dose microM >=1, time 8.0 hrs
Target sequence in this assay (P40337 whole entry, looked up): as the sequence (P40337 whole entry, looked up) above
Target sequence in this assay (P51617 whole entry, looked up): as the sequence (P51617 whole entry, looked up) above

Sequence of Interleukin-1 receptor-associated kinase 1 (P51617 whole entry, the tested form may be a part): as the sequence (P51617 whole entry, looked up) above

`COc1cc(N2CCOCC2)ccc1NC(=O)c1cccc(-c2ccn[nH]2)n1` gave an IC50 [1] of 23 nM, an IC50 [2] of 24 nM and an IC50 [3] of 2800 nM.

`COc1cc(N2CCC(OCC(=O)N[C@H](C(=O)N3C[C@H](O)C[C@H]3C(=O)NCc3ccc(-c4scnc4C)cc3)C(C)(C)C)CC2)ccc1NC(=O)c1cccc(-c2ccn[nH]2)n1` gave an IC50 [1] of 60 nM, an IC50 [2] of 260 nM and a %max [4] of 95%. The IC50 [5] was 1400 nM.

In the case of `COc1cc(N2CCC(OCC(=O)N[C@H](C(=O)N3C[C@@H](O)C[C@H]3C(=O)N[C@@H](C)c3ccc(-c4scnc4C)cc3)C(C)(C)C)CC2)ccc1NC(=O)c1cccc(-c2ccn[nH]2)n1`, the IC50 [1] is reported as 79 nM, the IC50 [2] is reported as 320 nM and the %max [4] is reported as 18%. For the same molecule, the DC50 [6] was greater than 10000 nM, the IC50 [5] was greater than 10000 nM and the Activity [7] was 1.5 µM. The Activity [8] was 3 µM.

For `COc1cc(N2CCN(CCC(=O)N[C@H](C(=O)N3C[C@H](O)C[C@H]3C(=O)NCc3ccc(-c4scnc4C)cc3)C(C)(C)C)CC2)ccc1NC(=O)c1cccc(-c2cc[nH]n2)n1`, the IC50 [1] was 80 nM, the IC50 [2] was 368 nM and the %max [4] was 88%. For the same molecule, the DC50 [6] was 134 nM, the IC50 [5] was 1650 nM and the Activity [9] was 50%. It also gave an Activity [10] greater than 90%.

From ChEMBL document CHEMBL5029152, “Discovery of Highly Potent and Selective IRAK1 Degraders to Probe Scaffolding Functions of IRAK1 in ABC DLBCL” (J Med Chem, 2021)
